Measurements as given in patent US10570155B2, “Imidazooxazole derivative having antitumor effect, and pharmaceutical composition including same” (KOREA INSTITUTE OF SCIENCE AND TECHNOLOGY, priority 2016, dated 2020).

Legend:
[1] = tested on: A375P cell line xenograft; assay: Tumor-inhibitory effects in melanoma mouse xenograft model; assay type: in vivo, nude mice; design: Tumor size: unit not given here
Method: In this experiment, A375P cell line which is a human-derived malignant melanoma cell line was subcutaneously administered to nude mice to prepare xenograft models, and the test material (compound 2II) was administered to the xenograft models to evaluate anti-cancer effects (GI: an excipient control group, G2: a group administered with 20 mg/kg/day of the test material, and G3: a group administered with 50 mg/kg/day of the test material).

UACC-62 = assay: NCI cancer cell line panel screening (SRB), melanoma cell line UACC-62; assay type: cell-based; conditions: Homo sapiens, read-out: IC50 against melanoma cell line in vitro
Method: (§1) According to the standard protocol (http://dtp.nci.nih.gov/dtpstandard/dwindex/index.isp) of the US National Cancer Institute (NCI) (www.dtp.nci.nih.gov), screening of a cancer cell line panel was performed. Briefly, human cell lines were allowed to grow in an RPMI 1640 medium containing 5% FBS and 2 mM L-glutamine. For a general screening experiment, cells were inoculated in 96-well microtiter plates in 100 μl at a plating density ranging from 5000 cells/well to 40,000 cells/well depending on the doubling time of individual cell lines. After cell inoculation, the microtiter plates were incubated at 37° C., 5% CO2, 95% air, and 100% relative humidity for 24 hours prior to addition of test compounds. 24 hours later, two plates of each cell line were fixed in situ with trichloroacetic acid (TCA) to measure the cell population for each cell line at the time of test compound addition (Tz). Test compounds were solubilized in dimethyl sulfoxide at 400-fold the intended final maximum test concentration, and stored frozen prior to use. At the time of compound addition, an aliquot of frozen concentrate was thawed and diluted to twice the intended final maximum test concentration with a complete medium containing 50 μg/ml of gentamicin. Additional four concentration of 10-fold or ½ log serial dilutions were made to provide a total of five compound concentrations plus control. Aliquots of 100 μl of these different compound dilutions were added to appropriate microtiter wells already containing 100 μl of medium, resulting in the required final compound concentrations.
(§2) Following compound addition, the plates were incubated for additional 48 hours at 37° C., 5% CO2, 95% air, and 100% relative humidity. For adherent cells, the assay was terminated by the addition of cold TCA. Cells were fixed in situ by the gentle addition of 50 μl of cold 50% (w/v) TCA (final concentration, 10% TAC) and incubated at 4° C. for 60 minutes. The supernatant was discarded, and the plates were washed five times with tap water and air-dried. A sulforhodamine B (SRB) solution (100 μl) at 0.4% (w/v) in 1% acetic acid was added to each well, and plates were incubated at room temperature for 10 minutes. After staining, unbound dye was removed by washing five times with 1% acetic acid and the plates were air-dried. Bound stain was subsequently solubilized with 10 mM Trizma base, and the absorbance was read on an automated plate reader at a wavelength of 515 nm. For suspension cells, the methodology was the same except that the assay was terminated by fixing settled cells at the bottom of the wells by gently adding 50 μl of 80% TCA (final concentration, 16% TCA). Using the seven absorbance measurements [time zero (Tz), control growth (C), and test growth rate in the presence of compound at the five concentration levels (Ti)], the growth percentage was calculated at each of the compound concentration levels. Growth inhibition percentage was calculated as follows: [(Ti−Tz)/(C−Tz)]×100 for concentrations for which Ti>/=Tz [(Ti−Tz)/Tz]×100 for concentrations for which Ti<Tz.

SK-MEL-5 = assay: NCI cancer cell line panel screening (SRB), melanoma cell line SK-MEL-5; assay type: cell-based, human; conditions: Homo sapiens, read-out: IC50 against melanoma cell line in vitro
Method: as §1, with “Briefly, human cell lines were allowed to grow in an RPMI 1640 medium containing 5% FBS and 2 mM L-glutamine.” left out
as §2, with “Bound stain was subsequently solubilized with 10 mM Trizma base, and the absorbance was read on an automated plate reader at a wavelength of 515 nm.” left out

SK-MEL-2 = assay: NCI cancer cell line panel screening (SRB), melanoma cell line SK-MEL-2; assay type: cell-based, human; conditions: Homo sapiens, read-out: IC50 against melanoma cell line in vitro
Method: as §1, with “Briefly, human cell lines were allowed to grow in an RPMI 1640 medium containing 5% FBS and 2 mM L-glutamine.” left out
as §2, with “Bound stain was subsequently solubilized with 10 mM Trizma base, and the absorbance was read on an automated plate reader at a wavelength of 515 nm.” left out

SK-MEL-28 = assay: NCI cancer cell line panel screening (SRB), melanoma cell line SK-MEL-28; assay type: cell-based, human; conditions: Homo sapiens, read-out: IC50 against melanoma cell line in vitro
Method: as §1, with “Briefly, human cell lines were allowed to grow in an RPMI 1640 medium containing 5% FBS and 2 mM L-glutamine.” left out
as §2, with “Bound stain was subsequently solubilized with 10 mM Trizma base, and the absorbance was read on an automated plate reader at a wavelength of 515 nm.” left out

MDA-MB-435 = assay: NCI cancer cell line panel screening (SRB), melanoma cell line MDA-MB-435; assay type: cell-based; conditions: Homo sapiens, read-out: IC50 against melanoma cell line in vitro
Method: as §1, §2

[2] = 20 and 50 mg/kg/day, intravenous, twice per week for 3 weeks

CCN1CCN(CCNc2nccc(-c3c(-c4cccc(O)c4)nc4occn34)n2)S1(=O)=O [2II, 2-Ethyl-5-(2-((4-(6-(3-hydroxylphenyl)imidazo[2,1-b]oxazol-5-yl)pyrimidin-2-yl)amino)ethyl)-1,2,5-thiadiazolidine 1,1-dioxide]
General symptoms and deaths [1, 2]: no deaths or no abnormalities in general symptoms were observed | Increase of the tumor size [1, 2]: inhibited in a dose-dependent manner | Tumor size, difference between experimental groups ([1]; G1, G2 (20 mg/kg/day), G3 (50 mg/kg/day)): no significant difference between all experimental groups | Tumor size ([1]; G2, 20 mg/kg/day, day 0): 145.08 ± 20.85 | Tumor size ([1]; G2, 20 mg/kg/day, day 4): 271.88 ± 60.05 | Tumor size ([1]; G2, 20 mg/kg/day, day 7): 556.42 ± 161.21 | Tumor size ([1]; G2, 20 mg/kg/day, day 11): 978.91 ± 258.24 | Tumor size ([1]; G2, 20 mg/kg/day, day 14): 1711.5 ± 631.79 | Tumor size ([1]; G2, 20 mg/kg/day, day 18): 2438.5 ± 962.99 | Tumor size ([1]; G2, 20 mg/kg/day, day 21): 3200.6 ± 944.99 | Body weight gain compared with excipient control group ([1]; G3, 50 mg/kg/day): significantly low | Body weight compared with control group (G1) ([1]; G3, 50 mg/kg/day, at 14 days and 21 days after administration): significantly low | Tumor size ([1]; G3, 50 mg/kg/day, day 0): 149.36 ± 20.91 | Tumor size ([1]; G3, 50 mg/kg/day, day 4): 276.08 ± 86.17 | Tumor size ([1]; G3, 50 mg/kg/day, day 7): 442.88 ± 73.08 | Tumor size ([1]; G3, 50 mg/kg/day, day 11): 754.16 ± 211.86 | Tumor size ([1]; G3, 50 mg/kg/day, day 14): 1174.7 ± 411.22 | Tumor size ([1]; G3, 50 mg/kg/day, day 18): 1543.9 ± 411.21 | Tumor size ([1]; G3, 50 mg/kg/day, day 21): 2063.1 ± 657.93 | IC50 (UACC-62): 70 nM | IC50 (SK-MEL-5): 6280 nM | IC50 (SK-MEL-2): 2600 nM | IC50 (SK-MEL-28): 130 nM | IC50 (MDA-MB-435): 370 nM
